Converted amounts (≈) assume the structure as drawn. Read-outs that look alike come from different tables or passages of the source.
How the values were obtained:
SARS-CoV-2 [1] = assay: microbe, parasite or virus in culture
SARS-CoV-2 [2] = settings: for activity in the HeLa-ACE2 cell-based SARS-CoV-2 assay: 35 ActivPred compounds tested; for Nh (Hill) coefficient: dose curves fitted with the four parameter Hill Equation
[3] = in vivo, cited from earlier work
[4] = values compared in Example 2; cited from earlier work
[5] = for adverse reactions / clinical signs: PO 50 and 250 mg/kg, single and 5 days, female 129S1 mice; for Mean: mean of 3 mice (± SD in Table 16); for AUC∞: extrapolated to ∞
[6] = single oral doses 1-200 mg; cited from earlier work
SARS-CoV-2 [7] = settings: cited from earlier work
in vivo = settings: rat, po, 1000 mg/kg
[8] = rat, in vivo
SARS-CoV-2/WA1 = type: cell-based, SARS-CoV-2 isolate USA-WA1/2020; settings: Severe acute respiratory syndrome coronavirus 2, HeLa-ACE2, read-out: SARS-CoV-2 IC50 value
COVID-19 = settings: ReFRAME study A00473; cited from earlier work
[9] = range for all doses (10-200 mg), human plasma, cited from earlier work
[10] = rat and monkey studies; cited from earlier work
[11] = human liver slices and microsomes; cited from earlier work
A/WSN/33 = assay: Influenza antiviral assay (IF-based) in A549 cells; type: cell-based, H1N1 influenza A virus; settings: Influenza A virus, A549, 24 h
[12] = ReFRAME study A00511; cited from earlier work
SARS-CoV-2 [13] = settings: same methods as used in this study; cited from earlier work
Ebola VLP entry = settings: cited from earlier work
SARS-CoV-2 [14] = settings: Day 4, cited from earlier work
[15] = Severe acute respiratory syndrome coronavirus 2, HeLa-ACE2, 24 h
[16] = lung, 250 mg/kg PO five consecutive days (Group 2, MD)
[17] = plasma, 50 mg/kg PO five consecutive days (Group 1, MD)
[18] = plasma, 50 mg/kg PO single dose (Group 1, SD)
[19] = plasma, 50 mg/kg PO single dose (Group 1, SD), 50 mg/kg
[20] = plasma, 250 mg/kg PO five consecutive days (Group 2, MD)
[21] = plasma, 250 mg/kg PO single dose (Group 2, SD)

In the case of `Cc1cccc(/C=N/Nc2cc(N3CCOCC3)nc(OCCc3ccccn3)n2)c1` [apilimod, reference compound], the Emax (SARS-CoV-2 [1]; Severe acute respiratory syndrome coronavirus 2, HeLa-ACE2, read-out: maximal efficacy) is reported as 85 to 90% and the “increase in EC50 from MOI=1 to MOI=26” value (SARS-CoV-2 [2]) is reported as 3.7 fold.
In the case of `Cc1c(-c2ccc(O)cc2)n(Cc2ccc(OCCN3CCCCCC3)cc2)c2ccc(O)cc12` [Bazedoxifene, reference compound], the dose safely tolerated ([3]; human) is given as 20 mg/day and the dose safely tolerated ([3]; rat) is given as 100 mg/kg/day.
`COc1ccc(C[C@H](N)C(=O)N[C@H]2[C@@H](O)[C@H](n3cnc4c(N(C)C)ncnc43)O[C@@H]2CO)cc1` [puromycin, reference compound] showed an EC50 (SARS-CoV-2 [1]; Severe acute respiratory syndrome coronavirus 2, HeLa-ACE2, […], average ± sem of 5 independent experiments) of 0.547 ± 0.027 µM.
For `Cc1c(-c2ccc(O)cc2)n(Cc2ccc(OCCN3CCCCC3)cc2)c2ccc(O)cc12` [Pipendoxifene, 2-(4-hydroxyphenyl)-3-methyl-1-[[4-(2-piperidin-1-ylethoxy)phenyl]methyl]indol-5-ol], the dose safely tolerated ([3]; human) is given as “up to 200 mg/daily”, the dose safely tolerated ([3]; mouse) is given as “at least 20 mg/kg/day” and the EC90 (SARS-CoV-2 [1]; Severe acute respiratory syndrome coronavirus 2, HeLa-ACE2) is given as 14.3 µM. The EC10 (SARS-CoV-2 [1]; [15]) was 5.01 µM, the EC50 (SARS-CoV-2 [1]; [15]) was less than 9.6 µM and the EC90 (SARS-CoV-2 [1]; Severe acute respiratory syndrome coronavirus 2, HeLa-ACE2, calculated with the Hill equation (Equation I) from nH 4 and EC10) was 15 µM. For the same molecule, the EC90 (SARS-CoV-2 [1]; Severe acute respiratory syndrome coronavirus 2, HeLa-ACE2, read-out: EC90 range, range from Equations I and II) was 14.3 to 15 µM, the “t ½” value [4] was 15.8 to 27.3 h and the Average plasma concentration ([5]; Group 2, MD (multiple, 5-day, dose) 250 mg/kg oral, 8.0 hr) was 575 ± 194 ng/mL. For the same molecule, the “adverse reactions / clinical signs” value [5] was “no adverse events at doses up to 250mg/kg”, the “adverse reactions / clinical signs” value ([5]; listed as pipendoxifene) was “No adverse reactions were observed” and the “Conc.” value ([5]; lung tissue, individual mice, 50 mg/kg PO single dose, 8.0 hr, 50 mg/kg, 480 min) was 7840 ng/g. For the same molecule, the “Mean” value ([5]; lung tissue, 50 mg/kg PO five consecutive days, 8.0 hr, 50 mg/kg, 480 min) was 5613 ± 1602 ng/g, the “Mean” value ([5]; lung tissue, 50 mg/kg PO single dose, 4.0 hr, 50 mg/kg, 240 min) was 8310 ± 630 ng/g and the “Mean” value ([5]; lung tissue, 250 mg/kg PO five consecutive days, 4.0 hr, 250 mg/kg, 240 min) was 39000 ± 15321 ng/g. For the same molecule, the “Mean” value ([5]; lung tissue, 250 mg/kg PO single dose, 8.0 hr, 250 mg/kg, 480 min) was 24733 ± 17321 ng/g, the “tmax” value ([5]; lung, 50 mg/kg PO five consecutive days (Group 1, MD)) was 8.0 h and the “MRTlast” value [5, 16] was 7.22 h. The “tmax” value [5, 16] was 4.0 h, the “tmax” value ([5]; lung, 250 mg/kg PO single dose (Group 2, SD)) was 8.0 h and the “plasma t1/2” value ([5]; mouse, in vivo, po) was 2.36 to 3.96 h. For the same molecule, the “MRTlast” value [5, 17] was 7.10 h, the “t1/2” value [5, 17] was 2.58 h and the “tmax” value [5, 17] was 6.0 h. For the same molecule, the “AUClast (hr·ng/mL) ± SE” value ([5]; plasma, 50 mg/kg PO five consecutive days (Group 1, MD), 50 mg/kg) was 1391 ± 55 ng·h/mL, the “AUC∞” value [5, 17] was 1396 ng·h/mL and the “MRTlast” value [5, 18] was 6.95 h. For the same molecule, the “t1/2” value [5, 18] was 2.36 h, the “tmax” value [5, 18] was 2.0 h and the “AUClast (hr·ng/mL) ± SE” value [5, 19] was 1600 ± 115 ng·h/mL. The “Cmax (ng/mL) ± SE” value [5, 19] was 179 ± 21 ng/mL, the “AUC∞” value [5, 18] was 1602 ng·h/mL and the “t1/2” value [5, 20] was 2.52 h. For the same molecule, the “tmax” value [5, 20] was 6.0 h, the “AUClast (hr·ng/mL) ± SE” value ([5]; plasma, 250 mg/kg PO five consecutive days (Group 2, MD), 250 mg/kg) was 11628 ± 1191 ng·h/mL and the “AUC∞” value [5, 20] was 11664 ng·h/mL. For the same molecule, the “MRTlast” value [5, 21] was 8.86 h, the “t1/2” value [5, 21] was 3.96 h and the “tmax” value [5, 21] was 6.0 h. The “Cmax (ng/mL) ± SE” value ([5]; plasma, 250 mg/kg PO single dose (Group 2, SD), 250 mg/kg) was 1020 ± 693 ng/mL, the “AUC∞” value [5, 21] was 10461 ng·h/mL and the “Mean” value ([5]; plasma, 50 mg/kg PO five consecutive days, 1.0 hr, 50 mg/kg, 60 min) was 56.0 ± 20.7 ng/mL. The “Mean” value ([5]; plasma, 50 mg/kg PO single dose, 2.0 hr, 50 mg/kg, 120 min) was 179 ± 37 ng/mL, the “Mean” value ([5]; plasma, 250 mg/kg PO five consecutive days, 8.0 hr, 250 mg/kg, 480 min) was 575 ± 194 ng/mL and the “Mean” value ([5]; plasma, 250 mg/kg PO single dose, 6.0 hr, 250 mg/kg, 360 min) was 1020 ± 1200 ng/mL. The tolerability [6] was “well tolerated with only mild transient adverse events observed at all doses”, the “result in SARS-CoV-2/HeLa-ACE2 HCI assay - % infected cells” value (SARS-CoV-2 [7]) was “INACTIVE” and the EC50 (SARS-CoV-2 [2]) was 8.24 µM. The “activity in the HeLa-ACE2 cell-based SARS-CoV-2 assay” value (shortened to “activity”) (SARS-CoV-2 [2]) was “demonstrated activity”, the “Nh (Hill) coefficient” value (SARS-CoV-2 [2]) was 4 and the EC50 (SARS-CoV-2 [2]; listed as pipendoxifene) was 8.42 µM. For the same molecule, the concentration at 6 h (in vivo) was 501 ng/mL, the Cmax [8] was 311 1 42 ng/mL and the “Lung C24h exceeding the IC50 value” [8] was 5.4 fold. The “plasma t1/2” value ([8]; po) was 4.71 to 6.06 h, the “AUClast ± SE” value ([8]; po, 250 mg/kg) was 3515 ± 980 ng·h/mL and the “AUClast ± SE” value ([8]; po, 750 mg/kg) was 5260 ± 1970 ng·h/mL. For the same molecule, the IC50 (SARS-CoV-2/WA1) was 0.328 µg/mL (≈ 0.718 µM), the “result in COVID-19 Cytopathic Effect (CPE) Assay” value (COVID-19) was “INACTIVE” and the “mean terminal t1/2” value [9] was 15.8 to 27.3 h. The “mean terminal t1/2” value ([9]; listed as pipendoxifene) was 15.8 to 27.3 h, the primary metabolite [10] was “primarily metabolized to an indole glucuronide” and the primary human metabolite [11] was “the same indole glucuronide as found in the preclinical models”. The IC50 (A/WSN/33) was 7.49 µM and the “result in SARS CoV-2 CPE Cytotoxicity Assay” value [12] was “INACTIVE”.
In the case of `Cc1c2c(nn1C)CSCc1cc(n(C)n1)CSc1cc(c3ccccc3c1)OCCCc1c(C(=O)O)n(C)c3c-2c(Cl)ccc13` [AZD-5991], the “activity” value (SARS-CoV-2 [2]) is reported as “demonstrated activity”.
For `COc1cc(Cl)cc(C(C)Nc2cc(N3CCNCC3)ccc2S(C)(=O)=O)c1OC.Cl` (stereo not drawn) [PRX-07034], the “activity” value (SARS-CoV-2 [2]) was “demonstrated activity”.
With `Nc1ncnc2c1nc(Cl)n2[C@@H]1O[C@@H]2COP(=O)(O)O[C@H]2[C@H]1O` [tocladesine] the “activity” value (SARS-CoV-2 [2]) was “demonstrated activity”.
For `CCC(CC)COC(=O)[C@H](C)N[P@](=O)(OC[C@H]1O[C@@](C#N)(c2ccc3c(N)ncnn23)[C@H](O)[C@@H]1O)Oc1ccccc1` [Remdesivir, reference compound], the EC50 (SARS-CoV-2 [1]; [15]) is listed as 0.13 µM, the “t ½” value [4] is listed as 1 h and the “increase in EC50 from MOI=1 to MOI=26” value (SARS-CoV-2 [2]) is listed as 2.7 fold.
In the case of `O=C(c1ccc(OCCN2CCCCC2)cc1)c1c(-c2ccc(O)cc2)sc2cc(O)ccc12` [raloxifene], the EC50 (SARS-CoV-2 [13]) is listed as 4.13 µM, the SI (Ebola VLP entry; Ebola VLP entry) is listed as greater than 10 and the IC50 (Ebola VLP entry; speculated active compounds, read-out: IC50, block of Ebola VLP entry in vitro) is listed as less than 10 µM.
For `CNCc1ccc(-c2cc(-c3nc(-c4ccc(S(=O)(=O)C(C)C)cc4)cnc3N)on2)cc1` [Berzosertib, reference compound], the “activity” value (SARS-CoV-2 [2]) was “demonstrated activity” and the “Nh (Hill) coefficient” value (SARS-CoV-2 [2]) was 1.485.
For `CC(C)(C)[C@H](NC(=O)C(F)(F)F)C(=O)N1C[C@H]2[C@@H]([C@H]1C(=O)N[C@H](C#N)C[C@@H]1CCNC1=O)C2(C)C` [Nirmatrelvir], the “log reduction in viral load” value (SARS-CoV-2 [14]; 300 mg/kg) is listed as 1.4 log, the “reduction in viral load” value (SARS-CoV-2 [14]; 1000 mg/kg BID) is listed as 1.91 log10 CCID50/mL and the “log reduction in viral load” value (SARS-CoV-2 [14]; 1000 mg/kg) is listed as 1.9 log.

Reference: EP4799624A2 (priority 2021, dated 2023)
